PMC11672137, “High-Affinity Lectin Ligands Enable the Detection of Pathogenic Pseudomonas aeruginosa Biofilms: Implications for Diagnostics and Therapy” (JACS Au, 2024)

What was measured:
[1] = target: T1, LecA (Pseudomonas aeruginosa, UniProt Q05097); assay: Direct binding assay based on fluorescence polarization, titration with LecA; conditions: read-out: Kd (direct binding, fluorescence polarization); LecA titrated to fluorescent probe, TBS/Ca2+ buffer
T1 construct: made in house
Method: The binding affinities of imaging probes 2–4 for LecA were determined using a direct binding assay based on fluorescence polarization (FP).[47]
(A, C) Monovalent LecA imaging probes 2–4 based on phenyl β-D-galactoside (1) were titrated with LecA. […] (E) Xyloside-fluorescein conjugate (8) and azido fluorescein (9) served as negative controls in titrations with LecA and LecB, respectively. Averages and standard deviations were determined from at least three independent titrations of technical triplicates each.
Direct binding affinity determination of LecA and LecB imaging probes was performed with direct titration of protein and imaging probes in TBS/Ca2+ buffer. Protein dilution series was prepared in 96 well plates and 10 µL of each dilution in triplicates were mixed with 10 µL of fluorescent compound (20 nM) in 384-well microtiter plates (Greiner Bio-One, Germany, cat no 781900). The plates were centrifuged (1 min, 500 g), sealed and incubated for 2 h in dark wet chamber under gentle shaking. Fluorescence was measured on a PheraStar FS plate reader (BMG Labtech GmbH, Germany) with excitation filters at 485 nm and emission filters at 535 nm. The data were analysed with MARS Data Analysis Software (BMG Labtech GmbH, Germany) to calculate Kd values.

[2] = target: T1, LecA; assay: Competitive binding assay based on fluorescence polarization, LecA
Method: Next, binding of the optimized divalent ligand 17 and its synthetic precursor 16 to LecA was evaluated by fluorescence polarization-based (FP) assays,[47] SPR, and ITC. […] Therefore, fluorescent ligand 17 was analyzed in a direct binding experiment by FP. […] The dissociation constants for 16 were 47.2 ± 11.3 nM (ITC) and 47.8 ± 44.1 nM (steady-state SPR), while for 17, the values were 64.1 ± 31.1 nM and 79.3 ± 24.9 nM (steady-state SPR). For the SPR experiments, Kd was also determined by single-cycle kinetic analysis resulting in approximately five times higher affinity, but the data have limited reliability due to suboptimal fit for the kinetic curves (Figures S13B and S14).[58]−[60] […]
137 mM NaCl, 2.6 mM KCl at pH 7.4 supplemented with 1 mM CaCl2). Protein concentration was determined by UV spectroscopy at 280 nm using a molar extinction coefficient of 27 960 M-1 cm-1 for LecA and 6 990 M-1 cm-1 for LecB.
All synthesized alkyne precursors (S5m, S5p, S6m, S6p, S11, 25, S16, S22 and S24) were analysed in the previously established competitive binding assays based on fluorescence polarization (Figure S2).18,19 Galactose-based compounds (S5m, S5p, S6m, S6p, S11) were evaluated against LecA and C-glycoside-based compounds […] and S16 against LecB. […]
PheraStar FS plate reader (BMG Labtech GmbH, Germany) with excitation filters at 485 nm and emission filters at 535 nm. […]

T1 sequence (Q05097 whole entry): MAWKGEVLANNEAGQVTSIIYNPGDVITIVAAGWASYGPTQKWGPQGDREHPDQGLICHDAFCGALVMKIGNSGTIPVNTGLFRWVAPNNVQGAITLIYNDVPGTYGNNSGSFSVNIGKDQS

O=C(CCc1ccc(O[C@@H]2O[C@H](CO)[C@H](O)[C@H](O)[C@H]2O)cc1)Nc1ccc(CN(CCc2cn(CCOCCOCCOCCNC(=S)Nc3ccc4c(c3)C(=O)OC43c4ccc(O)cc4Oc4cc(O)ccc43)nn2)Cc2ccc(NC(=O)CCc3ccc(O[C@@H]4O[C@H](CO)[C@H](O)[C@H](O)[C@H]4O)cc3)cc2)cc1 [compound 17]
Kd [1]: 1.05 ± 0.12 µM

C#CCCN(Cc1ccc(NC(=O)CCc2ccc(O[C@@H]3O[C@H](CO)[C@H](O)[C@H](O)[C@H]3O)cc2)cc1)Cc1ccc(NC(=O)CCc2ccc(O[C@@H]3O[C@H](CO)[C@H](O)[C@H](O)[C@H]3O)cc2)cc1 [compound 16]
IC50 [2]: 5.6 ± 2.2 µM
